# Source: patent US10765114B2, “4-amino-6-(pyridyl and 2-substitutedphenyl)-picolinates and 6-amino-2-(pyridyl and 2-substitutedphenyl)-pyrimidine-4-carboxylates and their use as herbicides” (Dow AgroSciences LLC, priority 2013, dated 2020)
# Read-outs that look alike come from different tables or passages of the source.
# Key:
# [1] = system: Key Grass and Sedge Weeds as well as Grass Crops; assay: Post-Emergent Test II (Table 6); format: in vivo; settings: post-emergence, 336 h, 14 days after application; for pest or weed control at 54.5 g/ha: 54.5 g ai/ha; for pest or weed control at 109 g/ha: 109 g ai/ha
# Procedure, shortened: (§1)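 Seedlings are raised 7-21 days in Metro-Mix 360 (pH 6.0-6.8) under greenhouse conditions, then sprayed at the first or second true leaf stage. Application is 187 L/ha, with serial rates down to 1/16× of the highest. Plants are subirrigated, and percent injury is rated visually after 14 days.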
# [2] = system: Key Broadleaf Weed and Crop Species; assay: Post-Emergent Test II (Table 5); format: in vivo; settings: post-emergence, 336 h; for pest or weed control at 54.5 g/ha: application rate 54.5 (kg ai/ha; footnote: g ai/ha); for pest or weed control at 109 g/ha: application rate 109 (kg ai/ha; footnote: g ai/ha)
# Procedure, shortened: as §1
# [3] = DIGSA: crabgrass (Digitaria sanguinalis), read-out: Visual Growth Reduction (%) 14 Days After Application DIGSA
# [4] = ECHSS, read-out: Visual Growth Reduction (%) 14 Days After Application ECHSS
# [5] = ORYSS (crop), read-out: Visual Growth Reduction (%) 14 Days After Application ORYSS
# [6] = SETFA: giant foxtail (Setaria faberi), read-out: Visual Growth Reduction (%) 14 Days After Application SETFA
# [7] = SORVU: grain sorghum (Sorghum vulgare), read-out: Visual Growth Reduction (%) 14 Days After Application SORVU
# [8] = TRZSS (crop), read-out: Visual Growth Reduction (%) 14 Days After Application TRZSS
# [9] = ZEAMX: maize, corn (Zea mays), read-out: Visual Growth Reduction (%) 14 Days After Application ZEAMX
# [10] = Abutilon theophrasti, ABUTH: velvetleaf (Abutilon theophrasti), read-out: Visual Growth Reduction (%) 14 Days After Application ABUTH
# [11] = Amaranthus retroflexus, AMARE: redroot pigweed (Amaranthus retroflexus), read-out: Visual Growth Reduction (%) 14 Days After Application AMARE
# [12] = Brassica napus, BRSSS: oilseed rape, canola (Brassica napus), read-out: Visual Growth Reduction (%) 14 Days After Application BRSSS
# [13] = Chenopodium album, CHEAL: lambsquarters (Chenopodium album), read-out: Visual Growth Reduction (%) 14 Days After Application CHEAL
# [14] = Euphorbia heterophylla, EPHHL: wild poinsettia (Euphorbia heterophylla), read-out: Visual Growth Reduction (%) 14 Days After Application EPHHL
# [15] = Helianthus annuus, HELAN: sunflower (Helianthus annuus), read-out: Visual Growth Reduction (%) 14 Days After Application HELAN
# [16] = Viola tricolor, VIOTR: wild pansy (Viola tricolor), read-out: Visual Growth Reduction (%) 14 Days After Application VIOTR
smiles,measurement,setting,value
COC(=O)c1nc(-c2ccc(Cl)c(F)c2SC)c(F)c(N)c1Cl [Compound 18],pest or weed control at 54.5 g/ha,"[1]; CYPSS, read-out: Visual Growth Reduction (%) 14 Days After Application CYPSS",95 to 100%
same,pest or weed control at 54.5 g/ha,[1]; [3],0 to 29%
same,pest or weed control at 109 g/ha,[1]; [3],0 to 29%
same,pest or weed control at 54.5 g/ha,[1]; [4],0 to 29%
same,pest or weed control at 109 g/ha,[1]; [4],0 to 29%
same,pest or weed control at 54.5 g/ha,[1]; [5],0 to 29%
same,pest or weed control at 109 g/ha,[1]; [5],0 to 29%
same,pest or weed control at 54.5 g/ha,[1]; [6],0 to 29%
same,pest or weed control at 109 g/ha,[1]; [6],0 to 29%
same,pest or weed control at 54.5 g/ha,[1]; [7],0 to 29%
same,pest or weed control at 109 g/ha,[1]; [7],0 to 29%
same,pest or weed control at 54.5 g/ha,[1]; [8],0 to 29%
same,pest or weed control at 109 g/ha,[1]; [8],0 to 29%
same,pest or weed control at 54.5 g/ha,[1]; [9],0 to 29%
same,pest or weed control at 109 g/ha,[1]; [9],0 to 29%
same,pest or weed control at 54.5 g/ha,[2]; [10],60 to 74%
same,pest or weed control at 109 g/ha,[2]; [10],60 to 74%
same,pest or weed control at 54.5 g/ha,[2]; [11],75 to 84%
same,pest or weed control at 109 g/ha,[2]; [11],95 to 100%
same,pest or weed control at 54.5 g/ha,[2]; [12],0 to 29%
same,pest or weed control at 109 g/ha,[2]; [12],0 to 29%
same,pest or weed control at 54.5 g/ha,[2]; [13],85 to 94%
same,pest or weed control at 109 g/ha,[2]; [13],85 to 94%
same,pest or weed control at 54.5 g/ha,[2]; [14],0 to 29%
same,pest or weed control at 109 g/ha,[2]; [14],0 to 29%
same,pest or weed control at 54.5 g/ha,[2]; [15],75 to 84%
same,pest or weed control at 109 g/ha,[2]; [15],75 to 84%
same,pest or weed control at 54.5 g/ha,[2]; [16],0 to 29%
same,pest or weed control at 109 g/ha,[2]; [16],0 to 29%
